From US20110098177A1, “METHODS AND COMPOSITIONS OF PLANT MICRONUTRIENTS” (NOVUS INTERNATIONAL INC., priority 2006, published 2011)

How the values were obtained:
Type in all cases: in vivo
Tygress tomato plants [1] = experiment: Foliar nutrient concentration 2 weeks after treatment, greenhouse tomato (Examples 4-6); settings: for B concentration in tomato leaves / Ca concentration in tomato leaves / Cu concentration in tomato leaves / Fe concentration in tomato leaves / K concentration in tomato leaves / Mg concentration in tomato leaves / Mn concentration in tomato leaves / N concentration in tomato leaves / P concentration in tomato leaves: 2 weeks after treatment
Experimental: (§1) The following experiments were performed in a green house during the fall of 2008 and spring of 2009 at GCREC, Balm, University of Florida. Crop set-up, procedures and variables were as follows.
(§2) Transplants of Tygress' tomato plants were planted in 2-gallon pots filled with commercial planting medium with nutrient concentration of Fe, Zn, Mn, Cu being negligible and insufficient for crop growth. Irrigation and non-micronutrient fertilizer were provided daily through microsprinklers at recommended rates for tomato production in Florida. No pesticides were used. Treatments were as described in Tables 4, 5 and 6 below.
(§3) Treatments were applied at 5 WAT (weeks after transplanting) using a water volume of 200 mL/plant. A non-ionic surfactant was added. Foliar tissue analysis was performed at 3 and 7 WAT on the non-applied newest leaves. The concentrations of N, P, K, Mg, Ca, B, Zn, Mn, Fe, and Cu in the foliar tissue were determined from foliar analysis by a commercial laboratory at 2 weeks before treatment and again at 2 weeks after treatment.
(§4) Deionized water was used for foliar applications, and other nutrients were applied as appropriate under non-limiting conditions. Marketable fruit were collected three times during the growing season, starting at 10 WAT (5 weeks after the initial treatment). Tomato fruit was graded as extra-large, large and medium. Non-marketable fruit were harvested and number and weight recorded but not sized.
(§5) Experimental design was a randomized complete block design with 6 replications. Data were analyzed using a general linear model, and means were separated using an LSD test at the 5% significance level.

Tygress tomato plants [2] = experiment: Yields of tomato fruits, greenhouse (Examples 4-6); settings: for Marketable yield: tomato fruits
Experimental: as §1, §2, §3, §4, §5

Tygress tomato plants [3] = experiment: Plant injury observed after BIOX-A foliar application, greenhouse tomato (Example 6); settings: BIOX-A at concentrations of 2.86 or higher
Experimental: The following experiments were performed in a green house during the fall of 2008 and spring of 2009 at GCREC, Balm, University of Florida. Crop set-up, procedures and variables were as follows. […] Irrigation and non-micronutrient fertilizer were provided daily through microsprinklers at recommended rates for tomato production in Florida. No pesticides were used. Treatments were as described in Tables 4, 5 and 6 below. […] Treatments were applied at 5 WAT (weeks after transplanting) using a water volume of 200 mL/plant. A non-ionic surfactant was added. […] There were no significant differences between the foliar nutrient concentration of the leaves of any of the treatment groups prior to treatment.

For `CSCCC(O)C(=O)O` (stereo not shown) [BIOX-A, 2-hydroxy-4(methylthio)butanoic acid], the “B concentration in tomato leaves” value (Tygress tomato plants [1]; BIOX-A 0.69 lb/acre) was 27 ppm, the “Ca concentration in tomato leaves” value (Tygress tomato plants [1]; BIOX-A 0.69 lb/acre) was 0.5% and the “Cu concentration in tomato leaves” value (Tygress tomato plants [1]; BIOX-A 0.69 lb/acre) was 29 ppm. For the same molecule, the “Fe concentration in tomato leaves” value (Tygress tomato plants [1]; BIOX-A 0.69 lb/acre) was 85 ppm, the “K concentration in tomato leaves” value (Tygress tomato plants [1]; BIOX-A 0.69 lb/acre) was 3.2% and the “Mg concentration in tomato leaves” value (Tygress tomato plants [1]; BIOX-A 0.69 lb/acre) was 0.3%. The “Mn concentration in tomato leaves” value (Tygress tomato plants [1]; BIOX-A 0.69 lb/acre) was 56 ppm, the “N concentration in tomato leaves” value (Tygress tomato plants [1]; BIOX-A 0.69 lb/acre) was 3.4% and the “P concentration in tomato leaves” value (Tygress tomato plants [1]; BIOX-A 0.69 lb/acre) was 0.6%. The “B concentration in tomato leaves” value (Tygress tomato plants [1]; BIOX-A 1.37 lb/acre) was 28 ppm, the “Ca concentration in tomato leaves” value (Tygress tomato plants [1]; BIOX-A 1.37 lb/acre) was 0.6% and the “Cu concentration in tomato leaves” value (Tygress tomato plants [1]; BIOX-A 1.37 lb/acre) was 31 ppm. For the same molecule, the “Fe concentration in tomato leaves” value (Tygress tomato plants [1]; BIOX-A 1.37 lb/acre) was 88 ppm, the “K concentration in tomato leaves” value (Tygress tomato plants [1]; BIOX-A 1.37 lb/acre) was 3.4% and the “Mg concentration in tomato leaves” value (Tygress tomato plants [1]; BIOX-A 1.37 lb/acre) was 0.3%. The “Mn concentration in tomato leaves” value (Tygress tomato plants [1]; BIOX-A 1.37 lb/acre) was 55 ppm, the “N concentration in tomato leaves” value (Tygress tomato plants [1]; BIOX-A 1.37 lb/acre) was 3.7% and the “P concentration in tomato leaves” value (Tygress tomato plants [1]; BIOX-A 1.37 lb/acre) was 0.4%. For the same molecule, the “B concentration in tomato leaves” value (Tygress tomato plants [1]; BIOX-A 2.86 lb/acre) was 28 ppm, the “Ca concentration in tomato leaves” value (Tygress tomato plants [1]; BIOX-A 2.86 lb/acre) was 0.6% and the “Cu concentration in tomato leaves” value (Tygress tomato plants [1]; BIOX-A 2.86 lb/acre) was 50 ppm. For the same molecule, the “Fe concentration in tomato leaves” value (Tygress tomato plants [1]; BIOX-A 2.86 lb/acre) was 87 ppm, the “K concentration in tomato leaves” value (Tygress tomato plants [1]; BIOX-A 2.86 lb/acre) was 3.3% and the “Mg concentration in tomato leaves” value (Tygress tomato plants [1]; BIOX-A 2.86 lb/acre) was 0.1%. The “Mn concentration in tomato leaves” value (Tygress tomato plants [1]; BIOX-A 2.86 lb/acre) was 54 ppm, the “N concentration in tomato leaves” value (Tygress tomato plants [1]; BIOX-A 2.86 lb/acre) was 3.1% and the “P concentration in tomato leaves” value (Tygress tomato plants [1]; BIOX-A 2.86 lb/acre) was 0.4%. The “B concentration in tomato leaves” value (Tygress tomato plants [1]; BIOX-A 5.52 lb/acre) was 24 ppm, the “Ca concentration in tomato leaves” value (Tygress tomato plants [1]; BIOX-A 5.52 lb/acre) was 0.6% and the “Cu concentration in tomato leaves” value (Tygress tomato plants [1]; BIOX-A 5.52 lb/acre) was 28 ppm. For the same molecule, the “Fe concentration in tomato leaves” value (Tygress tomato plants [1]; BIOX-A 5.52 lb/acre) was 90 ppm, the “K concentration in tomato leaves” value (Tygress tomato plants [1]; BIOX-A 5.52 lb/acre) was 2.1% and the “Mg concentration in tomato leaves” value (Tygress tomato plants [1]; BIOX-A 5.52 lb/acre) was 0.1%. The “Mn concentration in tomato leaves” value (Tygress tomato plants [1]; BIOX-A 5.52 lb/acre) was 53 ppm, the “N concentration in tomato leaves” value (Tygress tomato plants [1]; BIOX-A 5.52 lb/acre) was 2.7% and the “P concentration in tomato leaves” value (Tygress tomato plants [1]; BIOX-A 5.52 lb/acre) was 0.5%. For the same molecule, the “B concentration in tomato leaves” value (Tygress tomato plants [1]; BIOX-A 8.28 lb/acre) was 25 ppm, the “Ca concentration in tomato leaves” value (Tygress tomato plants [1]; BIOX-A 8.28 lb/acre) was 0.5% and the “Cu concentration in tomato leaves” value (Tygress tomato plants [1]; BIOX-A 8.28 lb/acre) was 25 ppm. For the same molecule, the “Fe concentration in tomato leaves” value (Tygress tomato plants [1]; BIOX-A 8.28 lb/acre) was 9 ppm, the “K concentration in tomato leaves” value (Tygress tomato plants [1]; BIOX-A 8.28 lb/acre) was 0.9% and the “Mg concentration in tomato leaves” value (Tygress tomato plants [1]; BIOX-A 8.28 lb/acre) was 0.1%. For the same molecule, the “Mn concentration in tomato leaves” value (Tygress tomato plants [1]; BIOX-A 8.28 lb/acre) was 57 ppm, the “N concentration in tomato leaves” value (Tygress tomato plants [1]; BIOX-A 8.28 lb/acre) was 1.7% and the “P concentration in tomato leaves” value (Tygress tomato plants [1]; BIOX-A 8.28 lb/acre) was 0.6%. The “Effect on foliar concentration of N, P, K, Mg, Ca, B, Mn, Fe and Zn relative to the control” value (Tygress tomato plants [1]; BIOX-A, all applied concentrations, P>0.05) was “None of the applied concentrations of BIOX-A had a significant effect”, the “Marketable and unmarketable yields (in words)” value (Tygress tomato plants [2]; 1.37 lb/acre or less of BIOX-A) was “statistically similar” and the Marketable yield (Tygress tomato plants [2]; BIOX-A 0.69 lb/acre) was 2.3 lb/plant. It also gave a Marketable yield (Tygress tomato plants [2]; BIOX-A 1.37 lb/acre) of 2.4 lb/plant, a Marketable yield (Tygress tomato plants [2]; BIOX-A 2.86 lb/acre) of 1.1 lb/plant and a Marketable yield (Tygress tomato plants [2]; BIOX-A 5.52 lb/acre) of 0 lb/plant. The Marketable yield (Tygress tomato plants [2]; BIOX-A 8.28 lb/acre) was 0 lb/plant, the “Non-marketable tomato yields compared with control (in words)” value (Tygress tomato plants [2]; BIOX-A at concentrations of 2.86 or higher) was “significantly higher non-marketable tomato yields than control” and the “Marketable tomato yields (in words)” value (Tygress tomato plants [2]; BIOX-A at concentrations of 2.86 or higher, P<0.05) was “significantly decreased”. For the same molecule, the “Plant injury (in words)” value (Tygress tomato plants [3]) was “severely injured tomato plants”.
